Experimental data as given in ChEMBL document CHEMBL1138972, “Discovery of potent CRTh2 (DP2) receptor antagonists” (Bioorg Med Chem Lett, 2006).
Active and inactive are the calls of the source. The rule behind the calls is not given here.

Tests used:
[1] = target: T1, Prostaglandin D2 receptor 2 (Homo sapiens) (UniProt Q9Y5Y4); test: Agonist activity at CRTh2 receptor; assay type: functional
T1 sequence (whole entry): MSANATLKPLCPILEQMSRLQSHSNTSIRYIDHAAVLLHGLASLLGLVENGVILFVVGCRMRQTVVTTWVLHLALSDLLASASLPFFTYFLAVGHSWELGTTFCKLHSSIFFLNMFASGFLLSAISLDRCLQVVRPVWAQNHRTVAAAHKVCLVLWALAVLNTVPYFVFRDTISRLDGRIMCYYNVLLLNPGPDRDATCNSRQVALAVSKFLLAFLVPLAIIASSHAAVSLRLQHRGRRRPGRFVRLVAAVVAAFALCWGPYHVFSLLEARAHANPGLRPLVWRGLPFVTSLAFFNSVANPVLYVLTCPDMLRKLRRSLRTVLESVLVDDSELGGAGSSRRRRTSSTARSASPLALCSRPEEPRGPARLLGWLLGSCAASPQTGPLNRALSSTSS

Homo sapiens = species: Homo sapiens; test: Protein binding in human plasma; conditions: read-out: PPB (converted)
[2] = Intrinsic clearance in human hepatocytes per 10^6 cells
[3] = Intrinsic clearance in rat hepatocytes per 10^6 cells
[4] = target: Voltage-gated inwardly rectifying potassium channel KCNH2 (Homo sapiens, UniProt Q12809); test: Binding affinity to hERG in HEK293 cells by radioligand binding assay; assay type: cell-based
Chain of Voltage-gated inwardly rectifying potassium channel KCNH2 (Q12809 whole entry): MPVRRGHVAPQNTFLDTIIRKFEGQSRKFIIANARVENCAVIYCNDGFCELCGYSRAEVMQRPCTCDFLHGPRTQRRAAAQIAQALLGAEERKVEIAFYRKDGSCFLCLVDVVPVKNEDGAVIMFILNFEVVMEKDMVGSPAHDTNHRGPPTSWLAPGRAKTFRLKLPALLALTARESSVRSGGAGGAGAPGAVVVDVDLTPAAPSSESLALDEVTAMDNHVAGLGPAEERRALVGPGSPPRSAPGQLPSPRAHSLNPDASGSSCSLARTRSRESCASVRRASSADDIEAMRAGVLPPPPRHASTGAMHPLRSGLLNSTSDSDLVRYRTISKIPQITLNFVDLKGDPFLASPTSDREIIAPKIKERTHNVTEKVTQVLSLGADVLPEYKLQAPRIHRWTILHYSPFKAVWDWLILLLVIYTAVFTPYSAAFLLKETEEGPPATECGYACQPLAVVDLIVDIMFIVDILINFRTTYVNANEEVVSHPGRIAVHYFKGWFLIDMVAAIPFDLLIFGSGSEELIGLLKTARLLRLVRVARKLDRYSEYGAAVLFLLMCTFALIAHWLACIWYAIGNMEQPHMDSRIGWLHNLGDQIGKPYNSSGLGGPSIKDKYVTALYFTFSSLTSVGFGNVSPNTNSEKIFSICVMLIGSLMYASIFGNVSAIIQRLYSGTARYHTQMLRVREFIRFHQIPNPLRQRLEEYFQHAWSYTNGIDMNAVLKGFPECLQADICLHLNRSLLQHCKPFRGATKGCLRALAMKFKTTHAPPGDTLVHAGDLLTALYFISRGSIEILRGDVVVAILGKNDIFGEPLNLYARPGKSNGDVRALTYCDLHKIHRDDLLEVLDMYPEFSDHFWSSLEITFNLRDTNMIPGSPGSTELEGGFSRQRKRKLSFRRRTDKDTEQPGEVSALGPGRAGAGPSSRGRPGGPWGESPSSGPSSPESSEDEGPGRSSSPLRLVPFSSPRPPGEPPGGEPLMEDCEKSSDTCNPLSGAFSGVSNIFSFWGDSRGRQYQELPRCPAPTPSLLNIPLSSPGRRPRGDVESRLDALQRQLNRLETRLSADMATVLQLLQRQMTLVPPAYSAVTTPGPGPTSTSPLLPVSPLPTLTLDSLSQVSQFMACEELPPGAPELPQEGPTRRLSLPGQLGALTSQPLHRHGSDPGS

[5] = target: T2, Prostaglandin D2 receptor (Homo sapiens) (UniProt Q13258); test: Binding affinity to DP1 receptor in HEK293 cells by radioligand binding assay; assay type: cell-based
T2 sequence (whole entry): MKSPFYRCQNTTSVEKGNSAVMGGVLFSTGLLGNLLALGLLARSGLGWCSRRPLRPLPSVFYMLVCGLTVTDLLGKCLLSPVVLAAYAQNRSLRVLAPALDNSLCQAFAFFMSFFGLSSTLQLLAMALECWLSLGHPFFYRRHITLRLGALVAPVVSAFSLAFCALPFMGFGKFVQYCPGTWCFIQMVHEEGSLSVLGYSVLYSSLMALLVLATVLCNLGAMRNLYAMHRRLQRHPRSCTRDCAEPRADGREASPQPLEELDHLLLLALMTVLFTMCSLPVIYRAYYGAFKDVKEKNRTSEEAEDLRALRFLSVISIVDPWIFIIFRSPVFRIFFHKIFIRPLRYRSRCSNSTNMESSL

physchem = conditions: buffer, pH 7.4
Description: Lipophilicity, LogD at pH 7.4

[6] = target: T3, Prostaglandin D2 receptor 2 (Homo sapiens, UniProt Q9Y5Y4); test: Displacement of [3H]PGD2 from human CRTh2 expressed in HEK293 cells; assay type: cell-based
T3 sequence (Q9Y5Y4 whole entry): T1 sequence (whole entry)

[7] = target: Aldo-keto reductase family 1 member B1 (Rattus norvegicus, UniProt P07943); test: Inhibition at rat aldose reductase
[8] = Bioavailability in rat; assay type: ADME, organism-based; conditions: in vivo
Rattus norvegicus [9] = species: Rattus norvegicus; test: (§1) Half life in rat; assay type: ADME, organism-based; conditions: in vivo
[10] = target: Sodium-dependent serotonin transporter (Rattus norvegicus, UniProt P31652); test: Inhibition at rat serotonin transporter
Chain of Sodium-dependent serotonin transporter (P31652 whole entry): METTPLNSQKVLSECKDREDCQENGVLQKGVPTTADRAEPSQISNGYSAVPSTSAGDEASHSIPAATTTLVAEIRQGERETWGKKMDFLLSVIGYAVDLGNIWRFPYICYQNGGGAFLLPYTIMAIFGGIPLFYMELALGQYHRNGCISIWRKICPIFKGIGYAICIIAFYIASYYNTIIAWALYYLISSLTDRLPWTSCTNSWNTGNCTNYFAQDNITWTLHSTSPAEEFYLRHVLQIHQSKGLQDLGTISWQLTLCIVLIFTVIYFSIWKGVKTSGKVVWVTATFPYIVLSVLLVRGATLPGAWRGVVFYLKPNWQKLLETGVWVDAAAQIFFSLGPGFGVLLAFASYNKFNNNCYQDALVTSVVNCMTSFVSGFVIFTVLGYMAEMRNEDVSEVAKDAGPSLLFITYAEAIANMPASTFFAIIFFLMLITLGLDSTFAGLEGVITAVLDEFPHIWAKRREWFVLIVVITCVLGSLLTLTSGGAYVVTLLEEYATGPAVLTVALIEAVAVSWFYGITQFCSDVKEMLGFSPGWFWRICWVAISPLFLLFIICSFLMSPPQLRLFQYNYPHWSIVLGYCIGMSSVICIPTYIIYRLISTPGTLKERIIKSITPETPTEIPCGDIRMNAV

[11] = Clearance in dog; assay type: ADME, organism-based, Canis lupus familiaris; conditions: in vivo
Cytochrome P450 2C19 = Cytochrome P450 2C19 (Homo sapiens, UniProt P33261); test: Inhibition at recombinant human CYP2C19; assay type: ADME
Chain of Cytochrome P450 2C19 (P33261 whole entry): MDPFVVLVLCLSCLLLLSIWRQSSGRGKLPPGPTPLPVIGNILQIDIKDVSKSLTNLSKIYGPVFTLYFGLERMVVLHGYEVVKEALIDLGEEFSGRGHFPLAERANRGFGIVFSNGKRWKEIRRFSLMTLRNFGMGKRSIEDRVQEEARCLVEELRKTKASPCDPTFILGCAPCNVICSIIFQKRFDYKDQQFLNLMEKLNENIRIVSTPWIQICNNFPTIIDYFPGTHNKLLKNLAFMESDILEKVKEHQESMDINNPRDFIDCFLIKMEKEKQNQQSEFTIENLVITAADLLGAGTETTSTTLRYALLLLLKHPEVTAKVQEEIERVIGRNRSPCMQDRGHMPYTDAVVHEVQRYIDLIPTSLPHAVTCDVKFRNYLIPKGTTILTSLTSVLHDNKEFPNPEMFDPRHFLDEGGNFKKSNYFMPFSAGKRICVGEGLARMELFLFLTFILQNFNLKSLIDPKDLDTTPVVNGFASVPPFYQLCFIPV

[12] = Half life in dog; assay type: ADME, organism-based, Canis lupus familiaris; conditions: in vivo
[13] = target: T4, Prostaglandin G/H synthase 2 (Homo sapiens, UniProt P35354); test: Inhibition of COX2
T4 sequence (P35354 whole entry): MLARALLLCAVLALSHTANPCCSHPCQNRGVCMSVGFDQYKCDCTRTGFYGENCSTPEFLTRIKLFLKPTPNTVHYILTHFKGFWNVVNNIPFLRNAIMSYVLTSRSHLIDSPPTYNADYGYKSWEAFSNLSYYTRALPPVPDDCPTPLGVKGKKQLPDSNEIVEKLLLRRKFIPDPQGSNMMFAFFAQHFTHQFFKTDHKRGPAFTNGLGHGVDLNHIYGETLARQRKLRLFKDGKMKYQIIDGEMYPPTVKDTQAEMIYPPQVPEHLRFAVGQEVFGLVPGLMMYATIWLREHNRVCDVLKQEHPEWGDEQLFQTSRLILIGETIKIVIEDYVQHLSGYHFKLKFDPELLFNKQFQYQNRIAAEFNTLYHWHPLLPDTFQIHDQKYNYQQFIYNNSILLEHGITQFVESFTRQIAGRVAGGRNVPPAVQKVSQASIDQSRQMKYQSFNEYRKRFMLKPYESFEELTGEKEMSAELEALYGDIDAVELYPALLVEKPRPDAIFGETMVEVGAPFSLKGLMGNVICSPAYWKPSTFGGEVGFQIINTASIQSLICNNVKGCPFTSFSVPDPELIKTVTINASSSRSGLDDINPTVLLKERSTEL

[14] = target: Prostaglandin G/H synthase 1 (Homo sapiens, UniProt P23219); test: Inhibition of COX1
Chain of Prostaglandin G/H synthase 1 (P23219 whole entry): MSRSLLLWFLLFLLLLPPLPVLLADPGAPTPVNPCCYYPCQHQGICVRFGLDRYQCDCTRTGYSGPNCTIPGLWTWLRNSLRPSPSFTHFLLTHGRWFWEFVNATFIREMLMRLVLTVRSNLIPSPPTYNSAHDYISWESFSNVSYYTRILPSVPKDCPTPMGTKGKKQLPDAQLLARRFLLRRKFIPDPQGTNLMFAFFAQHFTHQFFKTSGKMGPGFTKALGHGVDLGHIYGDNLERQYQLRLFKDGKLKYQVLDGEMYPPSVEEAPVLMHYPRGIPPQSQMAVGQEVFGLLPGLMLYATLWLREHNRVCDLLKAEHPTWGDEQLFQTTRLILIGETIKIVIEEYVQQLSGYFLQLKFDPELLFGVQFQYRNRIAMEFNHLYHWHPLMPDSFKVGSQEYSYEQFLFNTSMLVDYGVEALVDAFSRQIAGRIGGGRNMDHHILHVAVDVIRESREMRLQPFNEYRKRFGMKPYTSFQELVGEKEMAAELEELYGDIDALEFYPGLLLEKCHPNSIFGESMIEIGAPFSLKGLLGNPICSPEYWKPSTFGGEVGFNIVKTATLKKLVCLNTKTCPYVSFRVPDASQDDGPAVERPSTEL

Rattus norvegicus [15] = species: Rattus norvegicus; test: (§2) Volume of distribution in rat; assay type: ADME, organism-based; conditions: in vivo
[16] = Protein binding in rat plasma; assay type: ADME, cell-free; conditions: read-out: PPB (converted)
[17] = Bioavailability in dog; assay type: ADME, organism-based, Canis lupus familiaris; conditions: in vivo
[18] = Volume of distribution in dog; assay type: ADME, organism-based, Canis lupus familiaris; conditions: in vivo, read-out: Vss
Cytochrome P450 2C9 = Cytochrome P450 2C9 (Homo sapiens, UniProt P11712); test: Inhibition at CYP2C9; assay type: ADME
Chain of Cytochrome P450 2C9 (P11712 whole entry): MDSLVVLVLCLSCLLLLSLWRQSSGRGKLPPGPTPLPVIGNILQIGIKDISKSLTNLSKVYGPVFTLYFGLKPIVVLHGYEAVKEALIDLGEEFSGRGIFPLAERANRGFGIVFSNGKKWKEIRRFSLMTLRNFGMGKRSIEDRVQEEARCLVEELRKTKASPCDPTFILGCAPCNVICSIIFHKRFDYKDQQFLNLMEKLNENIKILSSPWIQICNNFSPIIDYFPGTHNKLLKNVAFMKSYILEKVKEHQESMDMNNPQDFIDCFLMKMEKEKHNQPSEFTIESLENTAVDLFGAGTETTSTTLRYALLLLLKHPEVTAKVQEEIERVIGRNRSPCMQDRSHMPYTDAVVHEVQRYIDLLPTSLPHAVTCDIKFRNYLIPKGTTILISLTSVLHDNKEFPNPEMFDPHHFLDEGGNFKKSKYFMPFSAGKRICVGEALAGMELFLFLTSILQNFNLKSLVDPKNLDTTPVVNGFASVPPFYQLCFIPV

[19] = as §1; assay type: ADME, organism-based; conditions: in vivo
[20] = as §2; assay type: ADME, organism-based; conditions: in vivo, read-out: Vss
[21] = Clearance in rat; assay type: ADME, organism-based; conditions: in vivo
[22] = target: T1, Prostaglandin D2 receptor 2 (Homo sapiens); test: Activity at CRTh2 measured as calcium flux changes in HEK293 cells by FLIPR; assay type: functional, cell-based

SMILES | Activity [1] | fraction unbound (Homo sapiens) | hepatocyte CLint [2] [µL/min/1e6 cells] | hepatocyte CLint [3] [µL/min/1e6 cells] | Activity [4] [µM] | Activity [5] [µM] | logD (physchem) | IC50 [6] [nM] | other results
Cc1ccc2c(c1)c(-c1ccnc3c(F)cccc13)c(C)n2CC(=O)O | inactive | 0.009 | 1.6 | < 1 | > 6 | > 6 | 0.5 | 7.1 | –
Cc1ccc2c(c1)c(-c1ccnc3c(C)cccc13)c(C)n2CC(=O)O | inactive | – | 1.9 | 5.5 | > 6 | > 6 | – | 2.6 | IC50 [7]: 150 nM; bioavailability [8]: 76%; T1/2 (Rattus norvegicus [9]): 1.7 h; IC50 [10]: 2000 nM; clearance [11]: 1 mL/min/kg; IC50 (Cytochrome P450 2C19): 2500 nM; half-life [12]: 5.3 h; IC50 [13]: 3000 nM; IC50 [14]: 3000 nM; Vss (Rattus norvegicus [15]): 1.4 L/kg; fraction unbound [16]: 0.02; bioavailability [17]: 100%; Vd [18]: 0.2 L/kg; IC50 (Cytochrome P450 2C9): 5000 nM
Cc1ccc2c(c1)c(-c1ccnc3cc(C(F)(F)F)ccc13)c(C)n2CC(=O)O | inactive | 0.004 | – | – | > 6 | > 6 | 1.8 | 5.4 | –
Cc1ccc2c(c1)c(-c1ccnc3cc(Cl)ccc13)c(C)n2CC(=O)O | inactive | 0.002 | 3.8 | 6 | > 6 | > 6 | 1.6 | 8 | half-life [19]: 6.7 h; IC50 [14]: 400 nM; Vd [20]: 1.4 L/kg; fraction unbound [16]: 0.02; clearance [21]: 6 mL/min/kg
COc1cccc2c(-c3c(C)n(CC(=O)O)c4ccc(C)cc34)ccnc12 | inactive | – | – | 7 | > 6 | > 6 | 0.5 | 11 | bioavailability [17]: 13%
Cc1ccc2c(c1)c(-c1ccnc3ccc(C(F)(F)F)cc13)c(C)n2CC(=O)O | inactive | – | – | 16 | > 6 | > 6 | 1.8 | 68 | –
COc1ccc2c(c1)c(CC(=O)O)c(C)n2-c1ccnc2cc(Cl)ccc12 | inactive | – | 1.4 | 6.5 | > 6 | > 6 | 1.7 | 180 | bioavailability [8]: 62%; half-life [19]: 2.2 h; Activity ([22]; filed as antagonist): Antagonist; IC50 (Cytochrome P450 2C19): 1600 nM; Vd [20]: 2.3 L/kg; clearance [21]: 11 mL/min/kg
Cc1ccc2c(c1)c(-c1ccnc3c(S(C)(=O)=O)cccc13)c(C)n2CC(=O)O | inactive | 0.064 | – | – | > 6 | > 6 | 0.3 | 23 | bioavailability [17]: 5%
Cc1ccc2c(c1)c(-c1cc(C)nc3ccccc13)c(C)n2CC(=O)O | inactive | 0.004 | – | 5 | > 6 | > 6 | 2.9 | 18 | –
Cc1ccc2c(c1)c(-c1ccnc3ccccc13)c(C)n2CC(=O)O | inactive | – | 3 | 10.7 | > 6 | > 6 | – | 21 | –
Cc1ccc2c(c1)c(-c1ccnc3c(Cl)cccc13)c(C)n2CC(=O)O | inactive | 0.006 | 2 | < 3 | > 6 | > 6 | 1.3 | 2.3 | half-life [12]: 2.4 h
COc1ccc2c(c1)c(-c1ccnc3cc(Cl)ccc13)c(C)n2CC(=O)O | inactive | 0.003 | – | 5 | > 6 | > 6 | – | 50 | –
Cc1c(CC(=O)O)c2ccccc2n1-c1ccncn1 | inactive | – | – | – | > 6 | > 6 | – | 5200 | Activity ([22]; filed as partial agonist): Partial agonist
Cc1ccc2c(-c3ccnc4cc(Cl)ccc34)c(C)n(CC(=O)O)c2c1 | inactive | – | – | – | > 6 | > 6 | – | 125 | –
Cc1ccc2c(c1)c(-c1ccnc3c(C#N)cccc13)c(C)n2CC(=O)O | inactive | – | – | < 3 | > 6 | > 6 | – | 18 | –
Cc1ccc2c(c1)c(-c1ccnc3c(C(F)(F)F)cccc13)c(C)n2CC(=O)O | inactive | 0.004 | – | – | > 6 | > 6 | 1.3 | 6 | –
